In brackets after ≈: the same amount, converted by molar mass.
Columns and labels:
[1] = test system: Shigella dysenteriae JS11910; experiment: Agar dilution assay, minimum growth inhibition concentration; type: cell-based; conditions: JS11910, read-out: Minimum growth-inhibition concentration
[2] = test system: spleen cells (LPS lymphocyte blast formation reaction); experiment: Suppression of LPS-induced lymphocyte blast formation, [3H]-thymidine uptake (Test 2); type: cell-based, BALB/c mouse; conditions: Mus musculus, LPS 100 μg/ml, 72 hours, read-out: IC50, 50% suppression of lymphocyte blast formation (LPS)
Method: (§1) A pharmacological test was made about a suppression activity of benastatins on the lymphocyte blast formation reaction.
(§2) In this test, use was made of an RPMI 1640 culture medium supplemented with 20% bovin fetus serum, 25 mM Hepes buffer, 100 μg/ml streptomycin and 100 units/ml penicillin G. The cultivation was effected by using microplate (COSTAR) with a flat bottom and with 96 wells. As mitogens, use was made of lipopolysaccharide (LPS) and concanavalin A (Con A) at concentrations of 100 and 5 μg/ml, respectively.
(§3) After spleen cells were taken out from BALB/c mouse (female, 25 weeks old), a unicellular suspension of the spleen cells was prepared, and then subjected to a hyper shock treatment to remove erythrocytes therefrom.
(§4) Each well was charged with 0.2 ml of a sample which contained 2×10^5 spleen cells and the test compound at a predetermined concentration. The cultivation was conducted for 72 hours. Before 8 hours from the completion of cultivation, each well was further charged with 37 KBq of [^3 H]-thymidine to determine the amount of the thymidine taken into the cells. […]

[3] = test system: Saccharomyces cerevisiae F-7; experiment: Agar dilution assay, minimum growth inhibition concentration; type: cell-based; conditions: F7; Saccharomyces cerevisiae F-7; read-out: Minimum growth-inhibition concentration
Pyricularia oryzae = experiment: microbe, parasite or virus in culture; type: cell-based; conditions: read-out: Minimum growth-inhibition concentration
[4] = test system: Klebsiella pneumoniae PCI602; experiment: Agar dilution assay, minimum growth inhibition concentration; type: cell-based; conditions: Klebsiella pneumoniae PCI602; read-out: Minimum growth-inhibition concentration
[5] = test system: spleen cells (Con A lymphocyte blast formation reaction); experiment: Suppression of Con A-induced lymphocyte blast formation, [3H]-thymidine uptake (Test 2); type: cell-based, BALB/c mouse; conditions: Mus musculus, Con A 5 μg/ml, 72 hours, read-out: IC50, 50% suppression of lymphocyte blast formation (Con A)
Method: as §1, §2, §3, §4

Escherichia coli NIHJ = experiment: Agar dilution assay, minimum growth inhibition concentration; type: cell-based; conditions: Escherichia coli NIHJ; read-out: Minimum growth-inhibition concentration
Aspergillus niger F-16 = experiment: as above; type: cell-based; conditions: F16; Aspergillus niger F-16; read-out: Minimum growth-inhibition concentration
Candida tropicalis F-1 = experiment: as above; type: cell-based; conditions: F1; Candida tropicalis F-1; read-out: Minimum growth-inhibition concentration
Salmonella typhi T-63 = experiment: as above; type: cell-based; conditions: Salmonella enterica
Proteus rettgeri GN311 = experiment: as above; type: cell-based; conditions: Providencia rettgeri; Proteus rettgeri GN311; read-out: Minimum growth-inhibition concentration
[6] = test system: Staphylococcus aureus No. 5 (MRSA); experiment: as above; type: cell-based; conditions: read-out: Minimum growth-inhibition concentration
mouse = experiment: Toxicity on administration to the abdominal cavity; type: in vivo; conditions: 100 mg/kg
Excerpt: Benastatins A and B were each administered to the abdominal cavity of a mouse to examine the toxicity thereof.

[7] = test system: Staphylococcus aureus No. 17 (MRSA); experiment: Agar dilution assay, minimum growth inhibition concentration; type: cell-based; conditions: read-out: Minimum growth-inhibition concentration
[8] = test system: Mycabacterium smegmatis ATCC607; experiment: as above; type: cell-based; conditions: Mycabacterium smegmatis ATCC607; read-out: Minimum growth-inhibition concentration
[9] = test system: Corynebacterium bovis 1810; experiment: as above; type: cell-based
Method: (§5) The minimum of microorganism growth inhibition concentrations of benastatins A and B were determined for various bacteria, east and fungi according to a conventional agar dilution assay method. It will be seen from Table 1 that benastatins A and B have a satisfactory antimicrobial activity, particularly against gram-positive bacteria, etc.

[10] = test system: Staphylococcus aureus MS9610; experiment: as above; type: cell-based
Method: as §5

[11] = test system: Cryptococcus neoformans F-10; experiment: as above; type: cell-based; conditions: F10
Method: as §5

[12] = test system: Bacillus cereus ATCC10702; experiment: as above; type: cell-based
Method: as §5

Cochliobolus miyabeanus = experiment: as above; type: cell-based; conditions: Bipolaris oryzae
Method: as §5

[13] = test system: Bacillus subtilis NRRL B-558; experiment: as above; type: cell-based; conditions: NRRLB558
Method: as §5

[14] = test system: Staphylococcus aureus Smith; experiment: as above; type: cell-based
Method: as §5

Micrococcus luteus FDA16 = experiment: as above; type: cell-based
Method: as §5

[15] = test system: Pseudomanas aeruginosa A3; experiment: as above; type: cell-based; conditions: Pseudomanas aeruginosa A3; read-out: Minimum growth-inhibition concentration
glutathione transferase = molecular target: T1, glutathione transferase (Rattus norvegicus, UniProt P04905); experiment: Glutathione transferase inhibition activity (3,4-dichloronitrobenzene/glutathione, absorption at 345 nm); type: biochemical
T1 construct: obtained from a homogenate of rat liver; from tissue; host or cells: rat liver homogenate, partially purified by DEAE-cellulose column and ammonium sulfate salting-out
Method: The glutathione transferase inhibition activity was determined by a modified method based on the known method described in Biochemical and Biophysical Research Communications, 112, 980-985 (1983).
A test tube was charged with a solution mixture consisting of (a) 0.1 ml of 90 mM glutathione (reduction type), (b) 0.05 ml of 20 mM 3,4-dichloronitrobenzene, (c) 1.7 ml of 0.1M potassium phosphate buffer solution (pH 7.4) and (d) 0.1 ml of an aqueous solution containing the test compound. The solution mixture was heated to 37° C. for 3 minutes, and admixed with 0.05 ml of a glutathione transferase solution to effect a reaction at 37° C. for 30 minutes. The glutathione transferase solution employed was one which had been obtained from a homogenate of rat liver and which had been patially refined by means of a DEAE-cellulose column and of salting out-operation with ammonium sulfate.
After the completion of the reaction, the sample was measured for the light absorption (a) at 345 nm. At the same time, a control sample which was free of the test compound and which contained only the buffer solution was measured for the light absorption (b) at 345 nm.
The glutathione transferase inhibition activity was determined according to the formula: […]
IC50, which is the concentration of a test compound required for 50% inhibition, was recorded.

T1 sequence (P04905 2-218 limits assumed): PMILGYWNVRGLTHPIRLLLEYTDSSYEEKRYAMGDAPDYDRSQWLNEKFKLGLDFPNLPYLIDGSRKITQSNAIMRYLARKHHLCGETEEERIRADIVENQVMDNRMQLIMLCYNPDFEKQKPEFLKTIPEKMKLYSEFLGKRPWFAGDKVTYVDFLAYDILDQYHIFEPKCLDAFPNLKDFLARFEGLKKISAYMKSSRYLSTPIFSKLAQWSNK

What does the source list for `CCCCCc1cc2ccc3c(O)c4c(cc3c2c(O)c1C(=O)O)C(C)(C)c1cc(O)cc(O)c1C4=O` [Benastatin A, benastatin A]?
MIC [1]: > 50 µg/mL; IC50 [2]: 7.7 µg/mL (≈ 15.4 µM); MIC [3]: > 100 µg/mL; MIC (Pyricularia oryzae): 50 µg/mL (≈ 99.9 µM); MIC [4]: > 50 µg/mL; IC50 [5]: 7.3 µg/mL (≈ 14.6 µM); MIC (Escherichia coli NIHJ): 100 µg/mL (≈ 200 µM); MIC (Aspergillus niger F-16): > 50 µg/mL; MIC (Candida tropicalis F-1): > 50 µg/mL; MIC (Salmonella typhi T-63): > 50 µg/mL; MIC (Proteus rettgeri GN311): 50 µg/mL (≈ 99.9 µM); MIC [6]: 3.12 µg/mL (≈ 6.23 µM); Solubility in organic solvents (Solubility; dimethyl sulfoxide, methanol, acetone, ethyl acetate): soluble; Solubility in water (Solubility; water): insoluble; Toxicity (mouse): No toxicity was observed; MIC [7]: 3.12 µg/mL (≈ 6.23 µM); MIC [8]: 50 µg/mL (≈ 99.9 µM); MIC [9]: 3.12 µg/mL (≈ 6.23 µM); MIC [10]: 3.12 µg/mL (≈ 6.23 µM); MIC [11]: 50 µg/mL (≈ 99.9 µM); MIC [12]: 3.12 µg/mL (≈ 6.23 µM); MIC (Cochliobolus miyabeanus): > 25 µg/mL; MIC [13]: 3.12 µg/mL (≈ 6.23 µM); MIC [14]: 3.12 µg/mL (≈ 6.23 µM); MIC (Micrococcus luteus FDA16): 3.12 µg/mL (≈ 6.23 µM); MIC [15]: > 50 µg/mL; IC50 (glutathione transferase): 4.99 µM

Source: patent US5117052A, “Physiologically active substances, benastatins A and B, and production and use thereof” (priority 1990, dated 1992)
